Data published in US20250236607A1, “CYCLIN-DEPENDENT KINASE 9 (CDK9) DEGRADERS AND METHODS OF USING THEREOF” (OHIO STATE INNOVATION FOUNDATION, priority 2022, published 2025).
Values after ≈ are worked out from the molar mass of the structure shown. Values joined by “and” are separate entries in the source; they are usually repeats but may differ in a detail not shown here. Identical values can stand only once. Like-named read-outs stand apart in the source and are kept apart here.

Columns and labels:
Kinetic solubility assay = settings: for solubility at 1.5 h: Solubility (μM)
MOLM13 cells = test: Cytotoxicity against MOLM13 cells; format: cell-based; settings: MOLM13 cells, read-out: IC50
Source text: Through amide coupling using I-ethyl-3-carbodiimide hydrochloride (EDC.HCl), the alkynyl derivatives of 4.16, 4.29 and 4.30 were synthesized. Using these VIP152-derivatives, degraders 4.31, 4.33 and 4.34 were synthesized using click chemistry. Degrader 4.32 was also synthesized using amide coupling conditions with (1-[Bis([…])methylene]-1H-1,2,3-triazolo[4,5-b]pyridinium 3-oxide hexafluorophosphate (HATU) and the carboxylic acid 4.28. Scheme 7 illustrates the synthesis of this initial series. The series was evaluated for cytotoxicity against MOLM13 cells (IC50) and for their CDK9 degradation potency (DC50). The results are provided in Table 3.

[1] = Chromatographic log D determination (log k′80); format: physicochemical; settings: chromatographic log D, PLRP-S column, pH 7.72
Procedure: Chromatographic Log D Determination. Test samples were prepared from 10 mM stock solutions in DMSO, to make 122 μM solutions in acetonitrile. Retention times were determined on a Shimadzu High Performance Liquid Chromatography (HPLC) system with Agilent PLRP-S column, 100 Å, 5 um particle size, 50×4.6 mm (part no.: PL1512-1500) with 1 mL/min flow rate. A 65 mM aqueous solution of ammonium acetate was prepared in water and diluted with acetonitrile to give 0.1% ammonium acetate 20:80 acetonitrile solution with pH 7.72. Eluents were detected with UV spectrophotometry at 337 nm. As a standard set, the retention times of β-estradiol, nifedipine, quinoline, phenol and 2-nitrophenol were determined (log k′80) and the dead time was extrapolated based on the reported log k′80 values originally reported by Caron et. al (log k′80*). The average value of the dead time for the standard set was 0.3001 minutes. Therefore, for consistency, 0.3 minutes was used as the dead time for all test samples. Experiments were performed in triplicate with a maximum percent standard deviation of 6.85%.

[2] = phosphate buffered saline, pH 7.4, aqueous buffer, kinetic from dmso stock, kinetic solubility, PBS pH 7.4
[3] = Homo sapiens, MOLM-13, cytotoxicity

| solubility at 1.5 h (Kinetic solubility assay; [2]) [µM] | logk′80 [1] | solubility kinetic at 1.5 h (Kinetic solubility assay; phosphate buffered saline, pH 7.4, aqueous buffer, kinetic from dmso stock) [µM] | Solubility (Kinetic solubility assay; kinetic solubility, PBS pH 7.4) | SMILES | IC50 (MOLM13 cells; [3]) [nM] | IC50 (MOLM13 cells; cytotoxicity) [nM] |
| --- | --- | --- | --- | --- | --- | --- |
| < 5 | 0.17 | – | – | COc1cc(F)ccc1-c1cc(Nc2cc(CS(C)(=O)=NC(=O)CCCCc3cn(CCCOc4cccc5c4C(=O)N(C4CCC(=O)NC4=O)C5=O)nn3)ccn2)ncc1F (centres unmarked) [Compound 4.31, 5-(1-(3-((2-(2,6-dioxopiperidin-3-yl)-1,3-dioxoisoindolin-4-yl)oxy)propyl)-1H-1,2,3-triazol-4-yl)-N-(((2-((5-fluoro-4-(4-fluoro-2-methoxyphenyl)pyridin-2-yl)amino)pyridin-4-yl)methyl)(methyl)(oxo)-16-sulfaneylidene)pentanamide] | 170 | – |
| 51.6 (≈ 46.1 µg/mL) | – | > 50 | – | COc1cc(F)ccc1-c1cc(Nc2cc(CS(C)(=O)=NC(=O)CN3CCC(N4CCN(CC#Cc5ccc6c(c5)CN(C5CCC(=O)NC5=O)C6=O)CC4)CC3)ccn2)ncc1F (centres unmarked) [Compound 4.104, 2-[4-(4-{3-[2-(2,6-dioxopiperidin-3-yl)-1-oxo-2,3-dihydro-1H-isoindol-5-yl]prop-2-yn-1-yl}piperazin-1-yl)piperidin-1-yl]-N-{[(2-{[5-fluoro-4-(4-fluoro-2-methoxyphenyl)pyridin-2-yl]amino}pyridin-4-yl)methyl](methyl)oxo-16-sulfanylidene}acetamide] | > 1000 | 1100 |
| – | 0.15 | – | 29 µM and 29.1 µM | COc1cc(F)ccc1-c1cc(Nc2cc(CS(C)(=O)=NC(=O)CN3CCC(N4CCC(C#Cc5ccc6c(c5)CN(C5CCC(=O)NC5=O)C6=O)CC4)CC3)ccn2)ncc1F (centres unmarked) [Compound 4.103, 2-(4-{2-[2-(2,6-dioxopiperidin-3-yl)-1-oxo-2,3-dihydro-1H-isoindol-5-yl]ethynyl}-[1,4′-bipiperidin]-1′-yl)-N-{[(2-{[5-fluoro-4-(4-fluoro-2-methoxyphenyl)pyridin-2-yl]amino}pyridin-4-yl)methyl](methyl)oxo-26-sulfanylidene}acetamide] | – | 120 |
| – | 0.15 | – | – | COc1cc(F)ccc1-c1cc(Nc2cc(CS(C)(=O)=NC(=O)C3CCCN(Cc4cn(CC(=O)N5CCN(CCCc6cccc7c6C(=O)N(C6CCC(=O)NC6=O)C7=O)CC5)nn4)C3)ccn2)ncc1F (centres unmarked) [Compound 4.74, 1-({1-[2-(4-{3-[2-(2,6-dioxopiperidin-3-yl)-1,3-dioxo-2,3-dihydro-1H-isoindol-4-yl]propyl}piperazin-1-yl)-2-oxoethyl]-1H-1,2,3-triazol-4-yl}methyl)-N-{[(2-{[5-fluoro-4-(4-fluoro-2-methoxyphenyl)pyridin-2-yl]amino}pyridin-4-yl)methyl](methyl)oxo-λ^6-sulfanylidene}piperidine-3-carboxamide] | – | – |
| 403 (≈ 163 µg/mL) | 0.15 | – | – | COc1cc(F)ccc1-c1cc(Nc2cc(CS(C)(=N)=O)ccn2)ncc1F (racemic) [Compound 4.16, ((2-((5-fluoro-4-(4-fluoro-2-methoxyphenyl)pyridin-2-yl)amino)pyridin-4-yl)methyl)(imino)(methyl)4-sulfa-none, reference compound] | 60 | – |
